ChEMBL document CHEMBL3352686, “Development of synthetic lethality anticancer therapeutics” (J Med Chem, 2014)

Assays:
[1] = species on record: Homo sapiens; assay: Toxicity in patient with refractory acute leukemia; assay type: organism-based; settings: in vivo
[2] = test system: Homo sapiens; assay: Toxicity in refractory solid tumor and lymphoma patient at 10 mg dosed twice daily on days 1 to 5 in 21-day cycles co-treated with 50 mg cyclophosphamide once daily administered on days 1 to 5; assay type: organism-based; settings: in vivo
[3] = test system: Homo sapiens; assay: In vivo inhibition of PARP activity in tumor tissue of refractory solid tumor and lymphoma patient at 10 mg dosed twice daily on days 1 to 5 in 21-day cycles co-treated with 50 mg cyclophosphamide once daily administered on days 1 to 5; assay type: functional
[4] = Half life in refractory solid tumor and lymphoma patient; settings: human, in vivo
[5] = test system: Homo sapiens; assay: Toxicity in refractory solid tumor and lymphoma patient at 10 mg dosed twice daily on days 1 to 5 in 21-day cycles co-treated with 0.6 mg/m2/day, iv topotecan administered on days 1 to 5; assay type: organism-based; settings: in vivo
[6] = test system: Homo sapiens; assay: In vivo inhibition of PARP activity in peripheral blood mononuclear cells of refractory solid tumor and lymphoma patient at 10 mg dosed twice daily on days 1 to 5 in 21-day cycles co-treated with 50 mg cyclophosphamide once daily administered on days 1 to 5; assay type: functional
[7] = biological target: DNA-dependent protein kinase catalytic subunit (Homo sapiens, UniProt P78527); assay: Inhibition of DNAPK (unknown origin)
[8] = biological target: Serine/threonine-protein kinase mTOR (Homo sapiens, UniProt P42345); assay: Inhibition of mTOR (unknown origin)
[9] = biological target: Serine-protein kinase ATM (Homo sapiens, UniProt Q13315); assay: Inhibition of ATM (unknown origin)
[10] = biological target: Serine/threonine-protein kinase ATR (Homo sapiens, UniProt Q13535); assay: Inhibition of ATR (unknown origin)
[11] = Inhibition of PI3K (unknown origin); design: species or system Homo sapiens
[12] = species on record: Homo sapiens; assay: Toxicity in patient with solid tumor co-treated with 500 mg/m2 pemetrexed; assay type: organism-based; settings: in vivo
[13] = test system: Homo sapiens; assay: In vivo inhibition of PARP activity in peripheral blood mononuclear cells of advanced solid tumor patient at 12 mg/m2 co-treated with rucaparib and temzolomide; assay type: functional
[14] = Terminal half life in advanced breast cancer patient with BRCA1/2 mutations at 400 mg dosed twice daily; assay type: ADME, organism-based; settings: human, in vivo, read-out: beta t1/2 (converted)
[15] = test system: Homo sapiens; assay: In vivo inhibition of PARP activity in tumor tissue of advanced breast cancer patient with BRCA1/2 mutations at 400 mg dosed twice daily; assay type: functional
[16] = test system: Homo sapiens; assay: In vivo inhibition of PARP activity in peripheral blood mononuclear cells of advanced breast cancer patient with BRCA1/2 mutations at 400 mg dosed twice daily; assay type: functional
[17] = Cmax in advanced breast cancer patient with BRCA1/2 mutations at 400 mg dosed twice daily; assay type: ADME, organism-based; design: dose 400 mg; settings: human, in vivo
[18] = test system: Homo sapiens; assay: Toxicity in advanced breast cancer patient with BRCA1/2 mutations assessed as maximum tolerated dose for twice daily dosing; assay type: organism-based; settings: in vivo
[19] = Terminal half life in BRCA mutation carrying cancer patient with sporadic cancer; settings: human, in vivo
[20] = Cmax in BRCA mutation carrying cancer patient with sporadic cancer; settings: human, in vivo

DNA-dependent protein kinase catalytic subunit, sequence (P78527 whole entry): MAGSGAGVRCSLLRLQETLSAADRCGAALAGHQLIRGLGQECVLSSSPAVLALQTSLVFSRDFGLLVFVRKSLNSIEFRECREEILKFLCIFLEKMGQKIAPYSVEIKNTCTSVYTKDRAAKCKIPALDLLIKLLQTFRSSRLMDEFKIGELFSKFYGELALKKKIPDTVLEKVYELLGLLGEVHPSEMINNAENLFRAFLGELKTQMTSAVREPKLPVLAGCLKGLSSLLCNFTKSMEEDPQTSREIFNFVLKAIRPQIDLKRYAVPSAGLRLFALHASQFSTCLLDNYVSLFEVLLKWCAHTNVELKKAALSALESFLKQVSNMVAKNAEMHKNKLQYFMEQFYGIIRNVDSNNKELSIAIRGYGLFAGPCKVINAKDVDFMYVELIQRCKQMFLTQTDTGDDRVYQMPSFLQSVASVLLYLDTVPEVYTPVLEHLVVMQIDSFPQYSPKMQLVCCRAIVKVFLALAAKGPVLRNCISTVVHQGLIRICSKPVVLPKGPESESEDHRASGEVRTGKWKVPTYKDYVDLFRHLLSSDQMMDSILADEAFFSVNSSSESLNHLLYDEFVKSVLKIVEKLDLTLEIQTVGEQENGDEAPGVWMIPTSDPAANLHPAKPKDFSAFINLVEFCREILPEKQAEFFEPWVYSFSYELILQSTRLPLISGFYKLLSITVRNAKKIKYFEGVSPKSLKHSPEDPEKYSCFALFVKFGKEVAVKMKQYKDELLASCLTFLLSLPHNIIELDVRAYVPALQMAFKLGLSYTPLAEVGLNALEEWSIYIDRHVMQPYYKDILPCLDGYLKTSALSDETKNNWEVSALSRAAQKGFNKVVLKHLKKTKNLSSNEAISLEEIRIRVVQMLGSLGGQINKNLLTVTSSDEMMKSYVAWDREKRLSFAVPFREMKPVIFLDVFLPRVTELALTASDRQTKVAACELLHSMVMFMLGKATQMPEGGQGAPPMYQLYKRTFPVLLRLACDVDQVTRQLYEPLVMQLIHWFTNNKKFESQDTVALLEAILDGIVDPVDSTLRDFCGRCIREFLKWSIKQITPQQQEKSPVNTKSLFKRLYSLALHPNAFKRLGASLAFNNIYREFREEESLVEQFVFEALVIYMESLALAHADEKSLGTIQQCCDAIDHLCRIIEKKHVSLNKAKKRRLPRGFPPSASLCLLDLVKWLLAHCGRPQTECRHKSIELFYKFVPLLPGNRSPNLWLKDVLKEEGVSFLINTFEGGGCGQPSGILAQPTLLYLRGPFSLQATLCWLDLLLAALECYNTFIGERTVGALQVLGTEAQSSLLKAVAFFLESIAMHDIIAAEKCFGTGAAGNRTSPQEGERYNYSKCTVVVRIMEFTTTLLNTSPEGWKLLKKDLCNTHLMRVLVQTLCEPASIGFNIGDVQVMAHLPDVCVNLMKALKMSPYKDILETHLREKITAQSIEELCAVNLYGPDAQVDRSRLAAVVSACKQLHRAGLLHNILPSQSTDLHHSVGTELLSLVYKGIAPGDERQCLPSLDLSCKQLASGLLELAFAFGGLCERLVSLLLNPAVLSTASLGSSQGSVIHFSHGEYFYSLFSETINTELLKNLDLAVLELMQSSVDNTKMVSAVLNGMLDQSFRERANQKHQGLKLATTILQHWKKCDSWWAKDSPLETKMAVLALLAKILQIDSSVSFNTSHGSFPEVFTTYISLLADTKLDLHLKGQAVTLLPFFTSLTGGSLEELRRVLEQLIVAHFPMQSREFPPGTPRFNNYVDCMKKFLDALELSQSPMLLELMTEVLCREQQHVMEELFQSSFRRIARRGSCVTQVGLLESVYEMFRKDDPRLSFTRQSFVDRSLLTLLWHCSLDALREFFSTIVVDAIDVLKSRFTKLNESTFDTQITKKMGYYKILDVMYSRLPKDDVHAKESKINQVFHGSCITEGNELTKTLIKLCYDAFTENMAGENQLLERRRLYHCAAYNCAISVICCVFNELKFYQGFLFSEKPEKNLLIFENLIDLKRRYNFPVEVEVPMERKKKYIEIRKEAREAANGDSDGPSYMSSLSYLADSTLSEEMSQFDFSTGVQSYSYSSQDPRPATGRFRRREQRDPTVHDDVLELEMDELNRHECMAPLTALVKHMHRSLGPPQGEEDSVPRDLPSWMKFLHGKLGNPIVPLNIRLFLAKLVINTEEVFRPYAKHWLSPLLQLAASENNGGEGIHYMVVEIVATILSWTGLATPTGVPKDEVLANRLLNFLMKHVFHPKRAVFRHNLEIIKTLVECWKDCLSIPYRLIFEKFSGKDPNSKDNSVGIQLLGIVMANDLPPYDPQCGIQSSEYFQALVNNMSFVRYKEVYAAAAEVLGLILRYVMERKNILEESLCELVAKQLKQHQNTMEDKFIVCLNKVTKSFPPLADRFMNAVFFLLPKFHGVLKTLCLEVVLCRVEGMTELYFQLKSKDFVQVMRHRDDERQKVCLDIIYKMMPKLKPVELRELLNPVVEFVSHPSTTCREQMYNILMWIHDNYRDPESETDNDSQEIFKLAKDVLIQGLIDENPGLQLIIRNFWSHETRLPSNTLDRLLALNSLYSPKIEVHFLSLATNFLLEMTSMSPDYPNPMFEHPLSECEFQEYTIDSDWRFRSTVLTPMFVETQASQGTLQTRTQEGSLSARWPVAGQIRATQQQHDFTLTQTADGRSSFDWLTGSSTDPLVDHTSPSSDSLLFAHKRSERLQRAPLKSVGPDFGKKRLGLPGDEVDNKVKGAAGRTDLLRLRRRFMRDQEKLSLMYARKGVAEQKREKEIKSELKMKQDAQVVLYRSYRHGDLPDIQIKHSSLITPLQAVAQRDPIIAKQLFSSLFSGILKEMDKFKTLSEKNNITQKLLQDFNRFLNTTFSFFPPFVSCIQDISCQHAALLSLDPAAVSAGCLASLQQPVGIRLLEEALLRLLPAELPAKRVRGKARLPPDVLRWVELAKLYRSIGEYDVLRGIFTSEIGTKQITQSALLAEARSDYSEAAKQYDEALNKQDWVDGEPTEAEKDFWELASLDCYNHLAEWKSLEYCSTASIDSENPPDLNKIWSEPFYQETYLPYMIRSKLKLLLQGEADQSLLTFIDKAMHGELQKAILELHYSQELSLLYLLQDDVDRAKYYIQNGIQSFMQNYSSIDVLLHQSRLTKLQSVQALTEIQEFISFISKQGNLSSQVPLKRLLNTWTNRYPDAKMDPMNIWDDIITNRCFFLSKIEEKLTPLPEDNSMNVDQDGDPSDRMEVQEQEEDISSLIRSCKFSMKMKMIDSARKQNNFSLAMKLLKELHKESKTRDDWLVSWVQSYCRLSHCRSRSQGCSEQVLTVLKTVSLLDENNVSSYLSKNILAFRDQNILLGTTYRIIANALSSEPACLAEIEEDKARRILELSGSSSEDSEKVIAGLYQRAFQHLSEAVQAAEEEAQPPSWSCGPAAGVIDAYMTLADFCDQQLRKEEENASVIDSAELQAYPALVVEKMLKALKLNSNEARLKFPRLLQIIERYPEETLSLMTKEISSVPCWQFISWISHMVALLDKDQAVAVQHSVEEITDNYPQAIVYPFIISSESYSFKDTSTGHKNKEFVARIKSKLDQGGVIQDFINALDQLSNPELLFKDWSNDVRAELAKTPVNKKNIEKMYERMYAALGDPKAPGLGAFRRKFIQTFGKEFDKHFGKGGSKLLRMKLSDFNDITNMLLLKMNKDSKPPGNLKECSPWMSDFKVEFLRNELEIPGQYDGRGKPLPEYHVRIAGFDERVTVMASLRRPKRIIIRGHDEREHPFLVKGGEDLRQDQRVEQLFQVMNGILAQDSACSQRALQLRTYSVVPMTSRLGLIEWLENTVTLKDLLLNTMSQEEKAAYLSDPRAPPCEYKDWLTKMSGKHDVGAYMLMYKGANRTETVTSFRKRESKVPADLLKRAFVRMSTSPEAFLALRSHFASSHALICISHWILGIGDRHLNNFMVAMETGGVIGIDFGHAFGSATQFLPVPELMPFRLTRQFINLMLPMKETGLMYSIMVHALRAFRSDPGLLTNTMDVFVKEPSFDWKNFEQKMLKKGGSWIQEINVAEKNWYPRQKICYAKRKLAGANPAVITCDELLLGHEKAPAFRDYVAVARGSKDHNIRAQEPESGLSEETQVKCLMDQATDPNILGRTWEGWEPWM

## Cn1cc(C2C=NN3C(N)=C(Br)C([C@@H]4CCCNC4)=NC23)cn1 (stereo not given in full)
[1]
  MTD: 56 mg/m2

## C[C@]1(c2nc3c(C(N)=O)cccc3[nH]2)CCCN1 [VELIPARIB]
[2]
  MTD: 60 mg
[3]
  inhibition (INH): 80%
[4]
  half-life: 5 h
[5]
  MTD: 60 mg
[6]
  inhibition (INH): 50%

## CC(C)(C#N)c1ccc(N2C(=O)OCc3cnc4ccc(-c5cnc6ccccc6c5)cc4c32)cc1
[7]
  IC50: > 36 nM
[8]
  IC50: 0.6 nM
[9]
  IC50: > 36 nM
[10]
  IC50: 14 nM
[11]
  IC50: > 36 nM

## Cc1cnc(NC(=O)Nc2cc(Br)c(C)cc2OC[C@@H]2CNCCO2)cn1 [RABUSERTIB]
[12]
  MTD: 150 mg/m2

## CNCc1ccc(-c2[nH]c3cc(F)cc4c3c2CCNC4=O)cc1 [RUCAPARIB]
[13]
  inhibition in vivo at 12 mg/m2: 74%

## O=C(c1cc(Cc2n[nH]c(=O)c3ccccc23)ccc1F)N1CCN(C(=O)C2CC2)CC1 [OLAPARIB]
[14]
  half-life: 7 h
[15]
  inhibition (INH): 70%
[16]
  inhibition (INH): 50%
[17]
  Cmax: 2600 ng/mL
[18]
  MTD: 400 mg

## NC(=O)c1cccc2cn(-c3ccc([C@@H]4CCCNC4)cc3)nc12 [NIRAPARIB]
[19]
  half-life: 36.4 h
[20]
  Cmax: 2000 nM
